Test results published in patent publication US20260125359A1, “HETEROARYL COMPOUNDS AS MULTI-TARGET PROTEIN KINASE INHIBITORS” (FUJIAN HAIXI PHARMACEUTICALS CO., LTD., priority 2023, published 2026).

How the values were obtained:
KDR (VEGFR2) = KDR (VEGFR2) (Homo sapiens, UniProt P35968); experiment: KDR (VEGFR2) in vitro kinase activity assay (HTRF kinEASE TK); type: biochemical; conditions: for inhibition at 0.01 µM: compound 10 nM, read-out: VEGFR2 inhibition rate, 10 nM; for inhibition at 0.1 µM: compound 100 nM, read-out: VEGFR2 inhibition rate, 100 nM
Excerpt: (§1) CSF-1R, PDGFR-α, KDR (VEGFR2) and KIT in vitro Kinase Activity Assay:
(§2) • ENVISION (Perkinelmer, 2104) • White 384-well MicroPlate (Cat #264706, Nunc) • HTRF kinEASE TK kit main reagents (Cat #62TKOPEC, Cisbio) • TK-biotin substrate • Streptavidin-XL665 • TK Antibody-Cryptate • 5× Enzymatic buffer (5×KB) • Staphylococcal enterotoxin B (SEB) • HTRF Detection buffer • CSF-1R (Cat #PV3249, Invitrogen) • PDGFR-α (Cat #PV3811, Invitrogen) • KDR (Cat #PV3660, Invitrogen) • KIT (Cat #08-156, Carna) • ATP 10 mM (Cat #PV3227, Invitrogen) • DTT 1 M (Cat #D5545, Sigma) • MgCl2 1 M (Cat #M8266, Sigma) • MnCl2 1 M (Cat #244589, Sigma)
(§3) Dilute Substrate-TK and ATP to 5× of the reaction concentration using 1× Kinase Buffer.
(§4) Prepare the 5× enzyme working solution using 1× Kinase Buffer.
(§5) Prepare the 4×Sa-XL665 working solution using Detection Buffer.
(§6) Dilute TK-Ab-Cryptate 100 times using Detection Buffer to prepare the working solution.
(§7) After all reagents were prepared according to the methods described above, except for the enzyme, they were equilibrated to room temperature before starting the sample addition. • a) First, 2.5% DMSO solutions were prepared separately using the pre-prepared 1× kinase buffer (DMSO concentrations that were too high could affect the reaction, so the final concentration of DMSO was controlled at 1%). Then, the corresponding 2.5% DMSO solution for the enzyme was used to dilute the test compounds. Compounds were screened with two concentrations of 100 nM and 10 nM. Except for the control wells, 4 μL of the diluted test compound solution was added to the reaction wells, and 4 μL of the pre-prepared 2.5% DMSO solution was added to the control wells. • b) 2 μL of the pre-prepared TK-biotin substrate solution at the corresponding concentration for the kinase was added to all reaction wells. • c) 2 μL of the pre-prepared enzyme solution at the corresponding concentration was added to all reaction wells except the negative control wells. For the negative control wells, 2 μL of 1× kinase buffer corresponding to the enzyme was added to make up the volume. The plate was sealed with sealing film, mixed gently, and incubated at room temperature for 10 min to allow the compounds to fully interact with the enzyme. • d) 2 μL of the ATP solution at the corresponding concentration for the enzyme was added to all reaction wells to initiate the kinase reaction. ATP concentrations and reaction times for enzyme screening are shown in Table 26 • e) Five minutes before the end of the kinase reaction, the detection solution was prepared. The detection buffer from the kit was used to prepare detection solutions for Streptavidin-XL665 and TK antibody europium cryptate (1:100) at the appropriate concentrations for the two enzymes. • f) After the kinase reaction was completed, 5 μL of the diluted Streptavidin-XL665 solution was added to all reaction wells. After mixing, the diluted TK antibody europium cryptate detection solution was immediately added. • g) The plate was sealed and mixed, incubated at room temperature for 1 hour, and the fluorescence signal was detected using the ENVISION (PerkinElmer) instrument (excitation at 320 nm, emission at 665 nm and 615 nm). The inhibition rate for each well was calculated based on the full-activity control wells and background signal wells, and the average value of the replicates was taken.

CSF-1R = CSF-1R (Homo sapiens, UniProt P07333); experiment: CSF-1R in vitro kinase activity assay (HTRF kinEASE TK); type: biochemical; conditions: for inhibition at 0.01 µM: compound 10 nM, read-out: CSF-1R inhibition rate, 10 nM; for inhibition at 0.1 µM: compound 100 nM, read-out: CSF-1R inhibition rate, 100 nM
Excerpt: as §1, §2, §3, §4, §5, §6, §7

CSF-1R, sequence (P07333 20-972): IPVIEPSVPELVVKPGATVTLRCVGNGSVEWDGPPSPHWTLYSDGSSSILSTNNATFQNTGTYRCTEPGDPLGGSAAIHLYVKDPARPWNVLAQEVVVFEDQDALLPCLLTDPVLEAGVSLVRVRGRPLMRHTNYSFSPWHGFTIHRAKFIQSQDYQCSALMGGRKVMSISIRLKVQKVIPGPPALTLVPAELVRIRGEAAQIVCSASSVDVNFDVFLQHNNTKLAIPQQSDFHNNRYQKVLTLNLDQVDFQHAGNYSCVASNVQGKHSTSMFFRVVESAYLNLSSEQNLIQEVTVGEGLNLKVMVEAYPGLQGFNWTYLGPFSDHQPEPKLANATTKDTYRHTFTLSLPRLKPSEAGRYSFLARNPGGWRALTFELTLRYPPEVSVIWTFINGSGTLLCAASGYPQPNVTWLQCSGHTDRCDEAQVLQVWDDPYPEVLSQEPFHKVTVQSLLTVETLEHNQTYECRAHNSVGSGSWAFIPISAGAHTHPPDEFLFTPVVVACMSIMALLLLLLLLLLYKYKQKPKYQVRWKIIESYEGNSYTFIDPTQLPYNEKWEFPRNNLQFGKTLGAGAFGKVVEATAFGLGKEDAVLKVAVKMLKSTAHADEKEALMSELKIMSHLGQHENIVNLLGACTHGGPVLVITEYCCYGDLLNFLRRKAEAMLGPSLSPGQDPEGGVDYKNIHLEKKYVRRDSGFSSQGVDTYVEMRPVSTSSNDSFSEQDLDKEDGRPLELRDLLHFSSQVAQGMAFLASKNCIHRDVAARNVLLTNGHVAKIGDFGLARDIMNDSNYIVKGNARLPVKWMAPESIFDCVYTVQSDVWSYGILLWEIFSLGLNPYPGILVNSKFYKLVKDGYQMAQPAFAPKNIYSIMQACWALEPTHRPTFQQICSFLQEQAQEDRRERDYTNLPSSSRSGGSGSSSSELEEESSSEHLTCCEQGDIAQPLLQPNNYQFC
KDR (VEGFR2), sequence (P35968 20-1356): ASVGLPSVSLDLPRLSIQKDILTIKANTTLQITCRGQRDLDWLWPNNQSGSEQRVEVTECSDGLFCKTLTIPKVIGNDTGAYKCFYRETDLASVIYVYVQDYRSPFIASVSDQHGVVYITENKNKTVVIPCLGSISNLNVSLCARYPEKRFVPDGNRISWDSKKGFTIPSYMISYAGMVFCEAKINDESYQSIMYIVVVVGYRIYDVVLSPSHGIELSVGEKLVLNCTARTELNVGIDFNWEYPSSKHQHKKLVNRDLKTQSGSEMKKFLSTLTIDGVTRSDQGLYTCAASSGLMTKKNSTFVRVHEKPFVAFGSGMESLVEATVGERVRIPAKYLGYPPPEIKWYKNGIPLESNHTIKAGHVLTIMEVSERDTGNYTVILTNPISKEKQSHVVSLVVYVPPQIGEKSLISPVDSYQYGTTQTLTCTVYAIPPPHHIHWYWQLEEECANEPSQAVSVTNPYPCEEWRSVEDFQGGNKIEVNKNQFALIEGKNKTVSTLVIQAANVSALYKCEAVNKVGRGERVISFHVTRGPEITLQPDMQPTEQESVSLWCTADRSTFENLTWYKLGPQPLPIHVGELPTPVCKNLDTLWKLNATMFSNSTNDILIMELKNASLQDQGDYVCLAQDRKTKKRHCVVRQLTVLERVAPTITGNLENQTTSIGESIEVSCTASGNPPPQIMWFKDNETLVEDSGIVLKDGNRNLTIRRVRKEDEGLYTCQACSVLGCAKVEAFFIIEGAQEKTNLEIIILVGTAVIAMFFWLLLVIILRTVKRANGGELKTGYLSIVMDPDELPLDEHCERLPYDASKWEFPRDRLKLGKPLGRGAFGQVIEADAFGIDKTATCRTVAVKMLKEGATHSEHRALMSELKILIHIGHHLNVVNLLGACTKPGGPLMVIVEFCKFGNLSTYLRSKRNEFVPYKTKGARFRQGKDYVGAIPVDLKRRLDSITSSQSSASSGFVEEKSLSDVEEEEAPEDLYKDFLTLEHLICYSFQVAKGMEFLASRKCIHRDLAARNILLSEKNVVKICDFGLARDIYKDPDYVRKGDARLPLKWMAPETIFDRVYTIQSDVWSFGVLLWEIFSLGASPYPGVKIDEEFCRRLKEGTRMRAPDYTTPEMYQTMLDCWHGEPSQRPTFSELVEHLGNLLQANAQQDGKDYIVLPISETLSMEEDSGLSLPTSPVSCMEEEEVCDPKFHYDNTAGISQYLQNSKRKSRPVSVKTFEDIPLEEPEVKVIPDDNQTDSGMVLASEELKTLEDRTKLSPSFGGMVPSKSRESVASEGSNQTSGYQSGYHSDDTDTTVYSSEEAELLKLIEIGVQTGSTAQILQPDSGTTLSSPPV

| SMILES | inhibition at 0.01 µM (KDR (VEGFR2)) [%] | inhibition at 0.1 µM (KDR (VEGFR2)) [%] | inhibition at 0.01 µM (CSF-1R) [%] | inhibition at 0.1 µM (CSF-1R) [%] |
| --- | --- | --- | --- | --- |
| Cn1cc(-c2cnc(N)c(O[C@H]3CCc4c(C(=O)Nc5cccc(C6CC6)c5)cccc43)c2)cn1 [Compound 4, (S)-1-((2-amino-5-(1-methyl-1H-pyrazol-4-yl)pyridin-3-yl)oxy)-N-(3-cyclopropylphenyl)-2,3-dihydro-1H-indene-4-carboxamide] | 97.8 | 100 | 80.1 | 89.8 |
| Cc1cccc(NC(=O)c2cccc3c2CC[C@@H]3Nc2cncc(-c3cnn(C)c3)c2)c1 [Compound 13, (S)-1-((5-(1-methyl-1H-pyrazol-4-yl)pyridin-3-yl)amino)-N-(m-tolyl)-2,3-dihydro-1H-indene-4-carboxamide] | 95.3 | 99.5 | 79.9 | 93.5 |
| Cn1cc(-c2cncc(N[C@H]3CCc4c(C(=O)Nc5cncc(Cl)c5)cccc43)c2)cn1 [Compound 14aa, (S)—N-(5-chloropyridin-3-yl)-1-((5-(1-methyl-1H-pyrazol-4-yl)pyridin-3-yl)amino)-2,3-dihydro-1H-indene-4-carboxamide] | 83.1 | 99.6 | 74.6 | 95.3 |
| Cn1cc(-c2cncc(N[C@H]3CCc4c(C(=O)Nc5ccc(C(F)(F)F)nc5)cccc43)c2)cn1 [Compound 14ah] | 26.8 | 58.1 | 41 | 101 |
| CN1CCc2ccc(NC(=O)c3cccc4c3CC[C@@H]4Nc3cncc(-c4cnn(C)c4)c3)cc2C1 [Compound 14ap] | 14.7 | 66.2 | 63.5 | 96.7 |
| Cc1cncc(NC(=O)c2cccc3c2CC[C@@H]3Nc2cncc(-c3cnn(C)c3)c2)c1 [Compound 14as] | 88.4 | 102 | 89.7 | 97 |
| CN1CCc2nc(NC(=O)c3cccc4c3CC[C@@H]4Nc3cncc(-c4cnn(C)c4)c3)sc2C1 [Compound 14ba] | 29.2 | 82.6 | 42.1 | 95.9 |
| Cc1cccc(C(=O)Nc2cccc3c2CC[C@@H]3Oc2cncc(-c3cnn(C)c3)c2)c1 [Compound 15, (S)-3-methyl-N-(1-((5-(1-methyl-1H-pyrazol-4-yl)pyridin-3-yl)oxy)-2,3-dihydro-1H-inden-4-yl)benzamide] | 60 | 97.3 | 49 | 90.5 |
| Cn1cc(-c2cncc(O[C@H]3CCc4c(C(=O)Nc5cncc(Cl)c5)cccc43)c2)cn1 [Compound 19a, (S)—N-(5-chloropyridin-3-yl)-1-((5-(1-methyl-1H-pyrazol-4-yl)pyridin-3-yl)oxy)-2,3-dihydro-1H-indene-4-carboxamide] | 92.3 | 101 | 79.4 | 100 |
| Cn1cc(-c2cncc(O[C@H]3CCc4c(C(=O)Nc5cccc(C6CC6)c5)cccc43)c2)cn1 [Compound 19b] | 93.6 | 102 | 71.9 | 97.4 |
| CN1CCc2nc(NC(=O)c3cccc4c3CC[C@@H]4Oc3cncc(-c4cnn(C)c4)c3)sc2C1 [Compound 19f] | 22.7 | 88.9 | 27.5 | 95.4 |
| CN(C)Cc1cncc(NC(=O)c2cccc3c2CC[C@@H]3Oc2cncc(-c3cnn(C)c3)c2)c1 [Compound 19h] | 24.6 | 84.4 | 72 | 96.6 |
| Cc1cncc(NC(=O)c2cccc3c2CC[C@@H]3Oc2cncc(-c3cnn(C)c3)c2)c1 [Compound 19j] | 91.7 | 102 | 80.1 | 101 |
| Cc1cc(NC(=O)c2cccc3c2CC[C@@H]3Oc2cncc(-c3cnn(C)c3)c2)cc(C)n1 [Compound 19k, (S)—N-(2,6-dimethylpyridin-4-yl)-1-((5-(1-methyl-1H-pyrazol-4-yl)pyridin-3-yl)oxy)-2,3-dihydro-1H-indene-4-carboxamide] | 53 | 99.1 | 57.6 | 97.4 |
| CN(c1cncc(-c2cnn(C)c2)c1)[C@H]1CCc2c(C(=O)Nc3cncc(Cl)c3)cccc21 [Compound 21, (S)—N-(5-chloropyridin-3-yl)-1-(methyl (5-(1-methyl-1H-pyrazol-4-yl)pyridin-3-yl)amino)-2,3-dihydro-1H-indene-4-carboxamide] | 22.3 | 62.6 | 48.6 | 100 |
| CN(c1cncc(-c2cnn(C)c2)c1)[C@H]1CCc2c(C(=O)Nc3cccc(C4CC4)c3)cccc21 [Compound 22a, (S)—N-(3-cyclopropylphenyl)-1-(methyl (5-(1-methyl-1H-pyrazol-4-yl)pyridin-3-yl)amino)-2,3-dihydro-1H-indene-4-carboxamide] | 52.5 | 96.4 | 34 | 96.7 |
| Cn1cc(-c2cncc(N[C@H]3CCc4c(C(=O)Nc5nn(C)c6ccccc56)cccc43)n2)cn1 [Compound 27g, (S)—N-(1-methyl-1H-indazol-3-yl)-1-((6-(1-methyl-1H-pyrazol-4-yl)pyrazin-2-yl)amino)-2,3-dihydro-1H-indene-4-carboxamide] | 88.9 | 100 | 75.2 | 95.8 |
| Cn1cc(-c2cncc(N[C@H]3CCc4c(Nc5cc(C(C)(C)C)on5)cccc43)c2)cn1 [Compound 41, (S)—N^4-(5-(tert-butyl)isoxazol-3-yl)-N^1-(5-(1-methyl-1H-pyrazol-4-yl)pyridin-3-yl)-2,3-dihydro-1H-indene-1,4-diamine] | 18.6 | 63.9 | 26.9 | 100 |
| Cn1cc(-c2cncc(N[C@H]3CCc4c(Nc5noc(C(C)(C)C)n5)cccc43)c2)cn1 [Compound 42o] | 28.9 | 65.6 | 55.8 | 100 |
| Cn1ncc2ncc(N[C@H]3CCc4c(C(=O)Nc5cccc(C6CC6)c5)cccc43)cc21 [Compound 73, (S)—N-(3-cyclopropylphenyl)-1-((1-methyl-1H-pyrazolo[4,3-b]pyridin-6-yl)amino)-2,3-dihydro-1H-indene-4-carboxamide] | 68.3 | 100 | 70.2 | 101 |
| Cn1cc2ncc(N[C@H]3CCc4c(C(=O)Nc5nc(C6CC6)cs5)cccc43)cc2n1 [Compound 74h, (S)—N-(4-cyclopropylthiazol-2-yl)-1-((2-methyl-2H-pyrazolo[4,3-b]pyridin-6-yl)amino)-2,3-dihydro-1H-indene-4-carboxamide] | 60.3 | 94.9 | 72.6 | 96.3 |
| Cn1ncc2ncc(O[C@H]3CCc4c(C(=O)Nc5cncc(Cl)c5)cccc43)cc21 [Compound 76ac, (S)—N-(5-chloropyridin-3-yl)-1-((1-methyl-1H-pyrazolo[4,3-b]pyridin-6-yl)oxy)-2,3-dihydro-1H-indene-4-carboxamide] | 85.4 | 98.3 | 71.9 | 97.3 |
| Cn1cc2ncc(O[C@H]3CCc4c(C(=O)Nc5cncc(Cl)c5)cccc43)cc2n1 [Compound 76ai] | 96.5 | 102 | 78.2 | 99.1 |
